Results: PubChem BioAssay (NCI)
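In this assay, cells in 96-well plates receive the compound at five concentrations for 48 hours. Endpoints are linearly interpolated between the surrounding concentrations. TGI is the concentration that stops growth completely.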

Experiments:
Assay in all cases: growth of human tumour cells (NCI), 48 h
SK-OV-3 ovarian = tested on: SK-OV-3 ovarian
BT-549 breast = tested on: BT-549 breast
MDA-MB-231 breast = tested on: MDA-MB-231 breast
HS 578T breast = tested on: HS 578T breast
SN12C renal = tested on: SN12C renal
CCRF-CEM leukemia = tested on: CCRF-CEM leukemia
IGROV1 ovarian = tested on: IGROV1 ovarian
OVCAR-5 ovarian = tested on: OVCAR-5 ovarian
OVCAR-3 ovarian = tested on: OVCAR-3 ovarian
KM12 colon = tested on: KM12 colon
COLO 205 colon = tested on: COLO 205 colon
786-0 renal = tested on: 786-0 renal
OVCAR-4 ovarian = tested on: OVCAR-4 ovarian
UACC-62 melanoma = tested on: UACC-62 melanoma

Compound | TGI (SK-OV-3 ovarian) | TGI (BT-549 breast) | TGI (MDA-MB-231 breast) | TGI (HS 578T breast) | TGI (SN12C renal) | TGI (CCRF-CEM leukemia) | TGI (IGROV1 ovarian) | TGI (OVCAR-5 ovarian) | TGI (OVCAR-3 ovarian) | TGI (KM12 colon) | TGI (COLO 205 colon) | TGI (786-0 renal) | TGI (OVCAR-4 ovarian) | TGI (UACC-62 melanoma)
COC(=O)[C@H](C)NC(=O)C1(CNC(=O)[C@H](C)NC(=O)OC(C)(C)C)Cc2ccccc2-c2ccccc2C1 | > 100 µM | > 70.3 µM | 35.4 µM | > 60.1 µM | 34.6 µM | 43.9 µM | 33.2 µM | 41.1 µM | 49.6 µM | 40.2 µM | 53.9 µM | 36.4 µM | > 63.5 µM | 34 µM
Cc1c2oc3c(C)cnc(C(=O)NC4C(=O)NC(C(C)C)C(=O)N5CCCC5C(=O)N(C)CC(=O)N(C)C(C(C)C)C(=O)OC4C)c3nc-2c(C(=O)NC2C(=O)NC(C(C)C)C(=O)N3CCCC3C(=O)N(C)CC(=O)N(C)C(C(C)C)C(=O)OC2C)c(N)c1=O (stereo not given) | 61.5 µM | 33.5 µM | 41.3 µM | 19.5 µM | > 70.1 µM | 5.44 µM | > 75 µM | > 75 µM | > 58.2 µM | 61.1 µM | 14.2 µM | > 75 µM | 73.5 µM | 12.4 µM
CC1(C)CCCC2CC2CCC(C)(C)C1=O (stereo not given) | > 100 µM | > 100 µM | > 100 µM | > 100 µM | > 100 µM | 38.4 µM | > 100 µM | > 100 µM | 82.7 µM | > 100 µM | 39 µM | 86.6 µM | > 100 µM | > 100 µM
COc1ccc(C(=O)N2CCN(c3ccc4c(c3)OCC(=O)N4)CC2)cc1OC | > 100 µM | > 100 µM | > 100 µM | > 100 µM | > 100 µM | > 100 µM | > 100 µM | > 100 µM | > 100 µM | > 100 µM | > 100 µM | > 100 µM | > 100 µM | > 100 µM
N#CC(c1ccccc1)N(CCc1ccccc1)C(=O)c1ccc(C(=O)N(CCc2ccccc2)C(C#N)c2ccccc2)cc1 (stereo not given) | > 100 µM | 44.3 µM | 76.1 µM | 39.1 µM | 38.3 µM | 71.5 µM | 57 µM | 78.7 µM | 47 µM | > 100 µM | 55.6 µM | 56.5 µM | 64 µM | 35.6 µM
Cc1ccc(N=NN(C)C(C)C(O)Cc2ccccc2)cc1 (stereo not given) | > 100 µM | > 100 µM | > 100 µM | > 100 µM | > 100 µM | > 100 µM | > 100 µM | > 100 µM | > 100 µM | > 100 µM | > 100 µM | > 100 µM | > 100 µM | > 100 µM
Brc1c2c(c(Br)c3nsnc13)N=S=N2 | > 79.7 µM | 26.9 µM | 60.7 µM | 75 µM | 32.8 µM | 5.2 µM | > 60.7 µM | 64.3 µM | 68.6 µM | > 100 µM | > 60.1 µM | 41.6 µM | > 55.7 µM | 33.5 µM
O=C(O)C1CC(C2CCCCN2)CN2CCCCC12 (stereo not given) | > 100 µM | > 100 µM | > 100 µM | > 100 µM | > 100 µM | > 100 µM | > 100 µM | > 100 µM | > 100 µM | > 100 µM | > 100 µM | > 100 µM | > 100 µM | > 100 µM
Cc1n[nH]c(=O)n1Nc1ccccc1 | > 100 µM | > 100 µM | > 100 µM | > 100 µM | > 100 µM | > 100 µM | > 100 µM | > 100 µM | > 100 µM | > 100 µM | > 100 µM | > 100 µM | > 100 µM | > 100 µM
O=C(NNC(=S)Nc1ccc(Cl)cc1)C12CC3CC(CC(C3)C1)C2 | 64.7 µM | 39.4 µM | 19.6 µM | 83 µM | 28.7 µM | 11.6 µM | 33.1 µM | 81.1 µM | 10.6 µM | > 51.6 µM | 18.3 µM | > 58 µM | 54.5 µM | 21.8 µM
O=C1NC(=S)N/C1=C\c1ccc(Cl)cc1 | > 100 µM | > 100 µM | > 100 µM | > 100 µM | > 100 µM | > 100 µM | > 100 µM | > 100 µM | > 100 µM | > 100 µM | > 100 µM | > 100 µM | > 100 µM | > 100 µM
CCN(CC)C(=S)/N=C(\SC(=S)N(CC)CC)c1ccccc1 | > 100 µM | > 100 µM | > 25.7 µM | > 100 µM | > 100 µM | > 100 µM | > 100 µM | > 100 µM | > 100 µM | > 44.1 µM | 72.5 µM | > 100 µM | > 100 µM | > 100 µM
O=C(CC(Cc1ccccc1)c1ccc(Oc2ccccc2)cc1)Nc1cccc(Cl)c1 (stereo not given) | > 100 µM | 75.9 µM | 53.8 µM | > 100 µM | > 100 µM | 21 µM | 16.3 µM | > 100 µM | 49.6 µM | > 100 µM | 19.3 µM | > 100 µM | > 100 µM | 14.8 µM
O=C1C=CC(=O)c2c(O)c(NCCO)c(Cl)c(O)c21 | > 10 µM | > 5.74 µM | 6.37 µM | > 10 µM | > 5.55 µM | > 10 µM | 5.63 µM | > 5.87 µM | 7.41 µM | > 10 µM | 3.4 µM | > 10 µM | 1.49 µM | 3.47 µM
Fc1ccc(Oc2nc3ccccc3nc2-c2ccccc2)cc1 | > 100 µM | > 100 µM | > 100 µM | > 100 µM | > 100 µM | > 100 µM | > 100 µM | > 100 µM | > 100 µM | > 100 µM | > 100 µM | > 100 µM | > 100 µM | > 100 µM
